The values that follow come from ChEMBL document CHEMBL1201862, “PubChem BioAssay data set” (2004).

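Cells were grown in 96-well plates and exposed to each compound for 48 hours at five concentrations; endpoints were interpolated linearly between bracketing concentrations, or set to the highest concentration if not reached. Here, GI50 denotes the concentration required for 50% inhibition of growth.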 Calls of active or inactive are those of the source. Rule as the data show it: active = GI50 up to about 1.1 µM and inactive = higher.

Test systems include A549; ACHN; CAKI-1; HCC 2998; HCT-116; HCT-15; KM12; Malme-3M; NCI-H226; NCI-H23; NCI-H460; OVCAR-3; OVCAR-4; OVCAR-5; U-251; UACC-257; UO-31; A498.
What all share (experiment): NCI anticancer screen, dose series, 48 h

`CC(=O)N(O)Cc1ccccc1`: the GI50 was > 100 µM (inactive) with A549; > 100 µM (inactive) with ACHN; > 100 µM (inactive) in the assay on CAKI-1; > 100 µM (inactive) in the assay with HCC 2998; > 100 µM (inactive) in the assay on HCT-116; > 100 µM in the assay with HCT-15. Moreover, the GI50 in the assay on KM12, with Malme-3M, with NCI-H226, in the assay with NCI-H23, in the assay with NCI-H460 and with OVCAR-3 was > 100 µM (inactive) in each case. In addition, the GI50 with OVCAR-4, in the assay on OVCAR-5, in the assay with U-251, in the assay with UACC-257 and in the assay with UO-31 was > 100 µM (inactive) each time.

For `Cn1c(-c2ccccc2)c/c(=N\NS(C)(=O)=O)c2cc(S(=O)(=O)O)ccc21`, the GI50 in the assay on A549 was > 100 µM (inactive); in the assay on ACHN, > 100 µM (inactive); in the assay on CAKI-1, > 100 µM (inactive); in the assay with HCC 2998, > 100 µM (inactive); with HCT-116 it was > 100 µM (inactive); in the assay with HCT-15 it was > 100 µM. Moreover, the GI50 in the assay on KM12, in the assay with Malme-3M, in the assay with NCI-H226, with NCI-H23, in the assay with NCI-H460 and in the assay with OVCAR-3 was > 100 µM (inactive) throughout. Also, the GI50 with OVCAR-4, in the assay with OVCAR-5, with U-251, in the assay with UACC-257 and in the assay with UO-31 was > 100 µM (inactive) each time.

As to `c1ccc(CN(Cc2ccccn2)Cn2cccn2)nc1`, the GI50 in the assay on A498 was 38.2 µM (inactive); in the assay with A549 it was 54.6 µM (inactive); with ACHN, 33 µM (inactive); in the assay on CAKI-1 it was > 100 µM (inactive); with HCT-116 it was 22.5 µM (inactive); with HCT-15, 28.7 µM. Besides, the GI50 with KM12 was 63.8 µM (inactive); with NCI-H23 it was 50.5 µM (inactive); in the assay on NCI-H460, 41.2 µM (inactive); in the assay on OVCAR-3 it was > 100 µM (inactive); in the assay on OVCAR-4, > 100 µM (inactive); in the assay with U-251 it was 39.2 µM (inactive). The GI50 in the assay on UACC-257 was 39 µM (inactive); in the assay on UO-31, 79.6 µM (inactive).

On to `O=S(=O)(c1ccccc1)C(CN1CCCCC1)S(=O)(=O)c1ccccc1`, for which the GI50 in the assay on A549 was > 100 µM (inactive); with ACHN it was > 100 µM (inactive); in the assay on CAKI-1, > 100 µM (inactive); in the assay on HCC 2998, > 100 µM (inactive); in the assay on HCT-15, > 100 µM; with KM12, > 100 µM (inactive). Further, the GI50 in the assay with Malme-3M, in the assay on NCI-H226, in the assay with NCI-H23, with NCI-H460, in the assay with OVCAR-3 and in the assay with OVCAR-4 was > 100 µM (inactive) each time. In addition, the GI50 with OVCAR-5, with U-251, in the assay with UACC-257 and with UO-31 was > 100 µM (inactive) each time.

As to `CCCCCCCOc1ccc(/C=C\c2cc[n+](CCCCCCCC[n+]3ccc(/C=C\c4ccc(OCCCCCCC)cc4)cc3)cc2)cc1`, the GI50 was 26.6 µM (inactive) in the assay with A498; 8.55 µM (inactive) in the assay with A549; 38.2 µM (inactive) in the assay with ACHN; 33.5 µM (inactive) in the assay on CAKI-1; 13.6 µM (inactive) with HCT-116; 19.9 µM in the assay with HCT-15. Moreover, the GI50 is 15 µM (inactive) with KM12; 18.7 µM (inactive) in the assay with Malme-3M; 28.2 µM (inactive) with NCI-H23; 5.51 µM (inactive) in the assay on NCI-H460; 19.1 µM (inactive) with OVCAR-3; 21.6 µM (inactive) with OVCAR-4. Moreover, the GI50 was 17.7 µM (inactive) in the assay with OVCAR-5, 7.46 µM (inactive) in the assay with U-251, 86.1 µM (inactive) with UACC-257 and 19.5 µM (inactive) with UO-31.
